Reference: PubChem BioAssay AID330 (DTP/NCI, 2004)
“And” between values parts separate entries of the source, which are not always exact repeats. Equal entries are not always repeated. Inconclusive results and toxic doses are left out. How the source made its calls: active means survival T/C of 150% or more; inactive means T/C below 125% in these data.

Tested on: P388 leukemia ip, CD2F1 mice, survival T/C
Experiment: NCI In Vivo Anticancer Drug Screen. Data for tumor model P388 Leukemia (intraperitoneal) in CD2F1 (CDF1) mice
Conditions: endpoint: median survival time, higher = longer survival
In short: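 Mice carrying the transplanted tumor received test compound or vehicle. Survival was recorded in each group, and the value is the treated-group measurement divided by that of the vehicle-treated control group.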

[1] = dose: 50.0 mg/kg/injection, schedule: Q01DX009 (ip), vehicle: saline with Tween-80
[2] = dose: 50.0 mg/kg/injection, schedule: Q04DX003 (ip), vehicle: saline with Tween-80
[3] = dose: 100.0 mg/kg/injection, schedule: Q01DX009 (ip), vehicle: saline with Tween-80
[4] = dose: 100.0 mg/kg/injection, schedule: Q04DX003 (ip), vehicle: saline with Tween-80
[5] = dose: 200.0 mg/kg/injection, schedule: Q01DX009 (ip), vehicle: saline with Tween-80
[6] = dose: 200.0 mg/kg/injection, schedule: Q04DX003 (ip), vehicle: saline with Tween-80
[7] = dose: 60.0 mg/kg/injection, schedule: Q01DX005 (ip), vehicle: saline with Tween-80
[8] = dose: 120.0 mg/kg/injection, schedule: Q01DX005 (ip), vehicle: saline with Tween-80
[9] = dose: 240.0 mg/kg/injection, schedule: Q01DX005 (ip), vehicle: saline with Tween-80

Measured: T/C

CC(=O)OC1CCCCC1C (stereo unspecified)
inactive: [1] 113 % of control | [2] 105 % of control | [3] 118 % of control | [4] 110 % of control | [5] 109 % of control | [6] 110 % of control

O=C([O-])CCNC1OC(CO)C(O)C(O)C1O.O=C([O-])CCNC1OC(CO)C(O)C(O)C1O.[Pd+2] (stereo unspecified)
inactive: dose: 50.0 mg/kg/injection, schedule: Q01DX005 (ip), vehicle: saline 99 % of control | dose: 100.0 mg/kg/injection, schedule: Q01DX005 (ip), vehicle: saline 102 % of control | dose: 200.0 mg/kg/injection, schedule: Q01DX005 (ip), vehicle: saline 99 % of control

C=CC[n+]1cc2c3ccccc3c(N)cc2c2ccccc21
inactive: dose: 1.56 mg/kg/injection, schedule: Q04DX003 (ip), vehicle: water 107 % of control | dose: 3.13 mg/kg/injection, schedule: Q04DX003 (ip), vehicle: water 116 % of control | dose: 6.25 mg/kg/injection, schedule: Q04DX003 (ip), vehicle: water 114 % of control | dose: 12.5 mg/kg/injection, schedule: Q04DX003 (ip), vehicle: other 106 % of control | dose: 12.5 mg/kg/injection, schedule: Q04DX003 (ip), vehicle: water 109 % of control

O=NNc1ccc(S(=O)(=O)c2ccc3ccccc3c2)cn1
inactive: dose: 3.12 mg/kg/injection, schedule: Q01DX009 (ip), vehicle: water 120 % of control | dose: 6.25 mg/kg/injection, schedule: Q01DX009 (ip), vehicle: water 115 % of control | dose: 12.5 mg/kg/injection, schedule: Q01DX009 (ip), vehicle: water 116 % of control | dose: 25.0 mg/kg/injection, schedule: Q01DX009 (ip), vehicle: water 109 % of control

NS(=O)(=O)c1ccc(NC(=O)CN(C(=O)C(F)(F)F)C2CCCC2)cc1
inactive: dose: 50.0 mg/kg/injection, schedule: Q01DX009 (ip), vehicle: Klucel (hydroxypropylcellulose) (HPC) 113 % of control | dose: 100.0 mg/kg/injection, schedule: Q01DX009 (ip), vehicle: Klucel (hydroxypropylcellulose) (HPC) 109 % of control | dose: 200.0 mg/kg/injection, schedule: Q01DX009 (ip), vehicle: Klucel (hydroxypropylcellulose) (HPC) 109 % of control

Cc1cc([N+](=O)[O-])ccc1NC(=O)OC(C)C
inactive: [7] 99 % of control | [8] 111 % of control | [9] 99 % of control

Cc1ccc(NC(=O)N(C)N=O)cc1
inactive: [1] 95 % of control | [2] 100 % of control | [3] 90 % of control | [4] 100 % of control | [5] 90 % of control | [6] 100 % of control

NC(=O)c1sc2ncccc2c1N
inactive: [7] 96 % of control | [8] 92 % of control | [9] 96 % of control

c1ccc(-c2nc(-c3ccccn3)cc3ccccc23)cc1
inactive: dose: 100.0 mg/kg/injection, schedule: Q01DX001 (ip), vehicle: saline with Tween-80 91 % of control | dose: 200.0 mg/kg/injection, schedule: Q01DX001 (ip), vehicle: saline with Tween-80 92 % of control | dose: 400.0 mg/kg/injection, schedule: Q01DX001 (ip), vehicle: saline with Tween-80 112 % of control

COc1cccc2c1C(=O)c1c(cc3c(c1O)[C@@H](OC1CC(NC(=O)c4ccc(N=[N+]=[N-])cc4)C(O)C(C)O1)C[C@](O)(C(C)=O)C3)C2=O (stereo partly specified)
inactive: dose: 6.25 mg/kg/injection, schedule: Q04DX003 (ip), vehicle: olive oil, sesame oil, peanut oil 100 % of control | dose: 12.5 mg/kg/injection, schedule: Q04DX003 (ip), vehicle: olive oil, sesame oil, peanut oil 97 % of control | dose: 25.0 mg/kg/injection, schedule: Q04DX003 (ip), vehicle: olive oil, sesame oil, peanut oil 100 % of control | dose: 50.0 mg/kg/injection, schedule: Q04DX003 (ip), vehicle: olive oil, sesame oil, peanut oil 112 % of control

OCC1OC(n2ccn(C3OC(CO)C(O)C3O)c2=S)C(O)C1O (stereo unspecified)
inactive: dose: 25.0 mg/kg/injection, schedule: Q04DX003 (ip), vehicle: water 103 % of control | dose: 50.0 mg/kg/injection, schedule: Q04DX003 (ip), vehicle: water 111 % of control | dose: 100.0 mg/kg/injection, schedule: Q04DX003 (ip), vehicle: water 111 % of control | dose: 200.0 mg/kg/injection, schedule: Q04DX003 (ip), vehicle: water 112 % of control | dose: 400.0 mg/kg/injection, schedule: Q04DX003 (ip), vehicle: water 111 % of control

c1ccc(-c2c[s+]cs2)cc1
inactive: dose: 6.25 mg/kg/injection, schedule: Q01DX009 (ip), vehicle: distilled water + Tween-80 111 % of control | dose: 12.5 mg/kg/injection, schedule: Q01DX009 (ip), vehicle: distilled water + Tween-80 107 % of control and 114 % of control | dose: 25.0 mg/kg/injection, schedule: Q01DX009 (ip), vehicle: distilled water + Tween-80 121 % of control and 123 % of control | dose: 50.0 mg/kg/injection, schedule: Q01DX009 (ip), vehicle: distilled water + Tween-80 104 % of control | dose: 100.0 mg/kg/injection, schedule: Q01DX009 (ip), vehicle: distilled water + Tween-80 114 % of control

C/C=C(\C)c1cc(=O)c2c(C)cc3c(c2o1)C(=O)c1c(O)c(C2CC(C)(N(C)C)C(OC(C)=O)C(C)O2)cc(C2CC(N(C)C)C(O)C(C)O2)c1C3=O (stereo unspecified)
inactive: dose: 1.25 mg/kg/injection, schedule: Q01DX009 (ip), vehicle: saline 100 % of control | dose: 2.5 mg/kg/injection, schedule: Q01DX009 (ip), vehicle: saline 117 % of control | dose: 5.0 mg/kg/injection, schedule: Q01DX009 (ip), vehicle: saline 89 % of control

CC(=O)c1ccc2ccccc2n1
inactive: dose: 25.0 mg/kg/injection, schedule: Q01DX009 (ip), vehicle: other 102 % of control | dose: 50.0 mg/kg/injection, schedule: Q01DX009 (ip), vehicle: other 105 % of control | dose: 100.0 mg/kg/injection, schedule: Q01DX009 (ip), vehicle: other 111 % of control | dose: 200.0 mg/kg/injection, schedule: Q01DX009 (ip), vehicle: other 114 % of control | dose: 400.0 mg/kg/injection, schedule: Q01DX009 (ip), vehicle: other 114 % of control

NCCCCC(C(=O)NC(Cc1ccc(O)cc1)C(=O)NC(CO)C(=O)OCc1ccc([N+](=O)[O-])cc1)N(C(=O)OCc1ccccc1)C(=O)OCc1ccccc1 (stereo unspecified)
inactive: dose: 50.0 mg/kg/injection, schedule: Q01DX005 (ip), vehicle: saline with Tween-80 101 % of control | dose: 100.0 mg/kg/injection, schedule: Q01DX005 (ip), vehicle: saline with Tween-80 100 % of control | dose: 200.0 mg/kg/injection, schedule: Q01DX005 (ip), vehicle: saline with Tween-80 97 % of control

O=C(/C=C/C(=O)OCC(Cl)(Cl)Cl)OCC(Cl)(Cl)Cl
inactive: [3] 100 % of control | [5] 114 % of control | dose: 400.0 mg/kg/injection, schedule: Q01DX009 (ip), vehicle: saline with Tween-80 106 % of control

CCOC(=O)C(C(C)=O)C(c1cc(OC)c(OC)c(OC)c1)c1cc2c(cc1O)OCO2 (stereo unspecified)
inactive: dose: 15.0 mg/kg/injection, schedule: Q01DX005 (ip), vehicle: saline with Tween-80 95 % of control | dose: 30.0 mg/kg/injection, schedule: Q01DX005 (ip), vehicle: saline with Tween-80 90 % of control | [7] 89 % of control and 92 % of control | [8] 100 % of control and 93 % of control

CC(=O)O[C@H]1CC[C@H]2[C@@H]3CCC(=O)CC(=O)CCC(=O)[C@H]3CC[C@]12C
inactive: dose: 50.0 mg/kg/injection, schedule: Q01DX005 (ip), vehicle: Klucel (hydroxypropylcellulose) (HPC) 108 % of control | dose: 100.0 mg/kg/injection, schedule: Q01DX005 (ip), vehicle: Klucel (hydroxypropylcellulose) (HPC) 109 % of control | dose: 200.0 mg/kg/injection, schedule: Q01DX005 (ip), vehicle: Klucel (hydroxypropylcellulose) (HPC) 105 % of control
